Reference: US12016829B2, “Pharmaceutical composition and method for treating seizure disorders” (Pike Therapeutics Inc, priority 2019, dated 2024)
Like-named read-outs stand apart in the source and are kept apart here.

Tests used:
[1] = cited from earlier work
[2] = Oral bioavailability, AUC and plasma concentration of CBD; format: in vivo, patient
Text: When a medication is orally administered, its bioavailability generally decreases due to incomplete absorption and first-pass metabolism and may vary from patient to patient. The compositions of the disclosure overcome these problems because in transdermal delivery, active agent is delivered directly into systemic circulation through the skin, and it escapes the first pass hepatic metabolism therefore to achieve the desired therapeutic activity less drug is required, resulting into less adverse effects or side effects.
So, the actual dose delivering to patient upon oral delivery is described in Table 3
So, 50 sqcm patch with 7.5 ug/sqcm/hr flux will deliver 9 mg of drug in one day. And 100 sqcm of patch will deliver 18 mg of drug with same flux profile.

[3] = significant number of patients, cited from earlier work

Row | SMILES | share of the administered dose that reaches systemic circulation ([1]; oral administration, hepatic first pass metabolism) | bioavailability ([2]; human, in vivo, oral, read-out: average bioavailability taken for calculation) | Avg. Oral Plasma Concentration ([2]; oral dose 5 mg/kg/day) | Avg. Oral Plasma Concentration ([2]; oral dose 10 mg/kg/day) | reduction of total convulsive frequency ([3]; TRE (Dravet syndrome, myoclonic absence seizures, FIRES)) | seizure status at the end of three months treatment [3] | Oral AUC ([1]; oral dose 5 mg/kg/day) | Oral AUC ([1]; oral dose 10 mg/kg/day)
1 | CCCCCc1cc(O)c2c(c1)OC(C)(C)c1ccc(C)cc1-2 [Cannabinol] | 10%-20% |  |  |  |  |  |  | 
2 | C=C(C)[C@@H]1CCC(C)=C[C@H]1c1c(O)cc(CCCCC)cc1O [CBD, 2-[(1R,6R)-6-isopropenyl-3-methylcyclohex-2-en-1-yl]-5-pentylbenzene-1,3-diol] |  | 15% | 10.0 ng/mL | 30.0 ng/mL | greater than 50% | seizure free | 241 ng·h/mL | 722 ng·h/mL
